Source: article PMC3271436 (Osteoarthritis and Cartilage, 2008)

Experiments:
Type in all cases: biochemical
[1] = biological target: T1, IGFBP-5 protease activity in human osteoarthritic joint fluid (Homo sapiens, UniProt P09871)
T1 sequence (P09871 16-688): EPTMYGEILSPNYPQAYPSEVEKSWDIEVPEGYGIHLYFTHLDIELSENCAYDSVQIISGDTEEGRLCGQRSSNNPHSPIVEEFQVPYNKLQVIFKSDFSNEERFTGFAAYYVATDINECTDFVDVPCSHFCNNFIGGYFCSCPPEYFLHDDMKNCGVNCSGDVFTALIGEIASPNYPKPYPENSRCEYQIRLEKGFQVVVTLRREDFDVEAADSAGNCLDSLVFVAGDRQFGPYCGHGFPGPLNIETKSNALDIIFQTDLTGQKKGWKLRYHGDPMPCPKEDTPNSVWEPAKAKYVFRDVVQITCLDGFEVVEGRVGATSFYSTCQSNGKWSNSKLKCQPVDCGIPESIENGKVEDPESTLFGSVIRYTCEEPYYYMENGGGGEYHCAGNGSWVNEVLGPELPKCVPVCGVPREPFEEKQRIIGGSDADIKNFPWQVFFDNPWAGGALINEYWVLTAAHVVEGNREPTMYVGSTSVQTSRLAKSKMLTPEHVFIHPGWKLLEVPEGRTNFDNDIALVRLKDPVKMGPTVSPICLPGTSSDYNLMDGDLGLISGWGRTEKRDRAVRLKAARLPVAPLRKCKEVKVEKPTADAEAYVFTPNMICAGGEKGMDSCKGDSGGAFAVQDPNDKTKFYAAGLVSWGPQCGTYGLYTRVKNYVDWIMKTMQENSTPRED

[2] = biological target: T2, purified IGFBP-5 protease from human osteoarthritic joint fluid (complement 1s) (Homo sapiens, UniProt P09871); assay: IGFBP-5 cleavage by protease purified from joint fluid
T2 sequence (P09871 16-688): T1 sequence (P09871 16-688)

[3] = biological target: T3, purified C1s (Calbiochem) (Homo sapiens, UniProt P09871); assay: C1s chromogenic assay with purified commercial C1s, substrate S-2765
T3 sequence (P09871 16-688): T1 sequence (P09871 16-688)

Row | Compound | Human Joint Fluid IC50 ([1]; crude joint fluid, 118 ng IGFBP-5, 16 h at 37°C) | Purified Protease IC50 ([2]; protease purified through Con-A step, 118 ng IGFBP-5, 16 h at 37°C) | activity in words against IGFBP-5 protease activity in crude joint fluid ([1]; 0.1 to 360 uM) | C1s inhibition in words [3] | IC50 [3] [nM] | IC50 [2] [nM] | activity in words against the purified joint fluid preparation ([2]; purified joint fluid preparation)
1 | c1cnc2c(c1)ccc1cccnc12 [1,10-phenanthroline] | No Inhibition | No inhibition | – | – | – | – | –
2 | N=C(N)c1ccc2cc(OC(=O)c3ccc(N=C(N)N)cc3)ccc2c1 [FUT175] | – | – | most active | potent C1s inhibitor | 70 | 1000 | most active
